According to patent publication US20060148057A1, “Thioredoxin mutants and uses thereof” (priority 2002, published 2006):

Legend:
[1] = system: ASK1; experiment: TNF-induced ASK1 activation in BAEC, in vitro kinase assay with GST-MKK4; type: cell-based, Bovine; conditions: Nac 1 mM pretreatment, TNF-α 10 ng/ml 15 min; n=3, p<0.01
Protocol: J Immunol. 159:3508-18 (1997)) using GST-MKK4 and GST-c-Jun (1-80) fusion protein as a substrate, respectively. Briefly, total 400 μg cell lysates were immunoprecipitated with 5 μg of antibody against ASK1 or JNK1 (Santa Cruz). The immunoprecipitates were mixed with 10 μg GST-MKK4 or GST-c-Jun (1-80) suspended in the kinase buffer (20 mM Hepes, pH 7.6, 20 mM MgCl2, 25 mM β-glycerophosphate, 100 μM sodium orthovanadate, 2 mM DTT, 20 μM ATP) containing 1 μl (10 μCi) of [γ-32P] ATP. The kinase assay was performed at 25° C. for 30 min. The reaction was terminated by the addition of Laemmli sample buffer and the phosphorylated GST-MKK4 or GST-c-Jun (1-80) was visualized by autoradiography.
TNF dissociates wild type Trx but not Trx-C32S or Trx-C35Sfroin ASK1 in vivo. Trx-C32S and Trx-C35S were examiner to determine whether they constitutively bind to ASK1 in vivo. Regulation of ASK1 by Trx was first examined to determine if such regulation is ROS-dependent in EC. BAEC were either untreated or treated with N-acetyl-cysteine (Nac, 1 mM) or vehicle for 60 min prior to TNF-α (10 ng/ml) stimulation for 15 min. TNF-induced ASK1 activation was measured by an in vitro kinase assay using GST-MKK4 (JNKK1) fusion protein as a substrate. TNF activated ASK1 in EC (FIG. 5A). […] Association of ASK1 with Trx was easily detected in untreated EC cells (FIG. 5B, Ctrl). […]

[2] = system: ASK1; experiment: Association of Trx with ASK1 in vivo in BAEC (co-immunoprecipitation); type: binding, Bovine; conditions: endogenous proteins, IP anti-Trx / Western anti-ASK1; Nac pretreatment then TNF
Protocol: Immunoprecipitation and immunoblotting EC after various treatments were washed twice with cold PBS and lysed in 1.5 ml of cold lysis buffer (50 mM Tris-HC, pH 7.6, 150 mM NaCl, 0.1% Triton X-100, 0.75% Brij 96, 10 μg/ml aprotinin, 10 μg/ml leupeptin, 2 mM PMSF, 1 mM EDTA) for 20 min on ice. Protein concentrations were determined with a Bio-Rad kit. For immunoprecipitation to analyze protein interaction in vivo, 400 μg of cell lysate supematant were incubated with 5 μg of the first protein-specific antiserum (e.g. anti-Trx from Medical & Biological Laboratory) for 2 h with 50 μl of GammaBind plus Sepharose. Immune complexes were collected after each immunoprecipitation by centrifugation at 14,000× g for 10 min followed by 4 washes with lysis buffer. The immune complexes were subjected to Western blot with the second protein (e.g., ASK1)-specific antibody (Santa Cruz Biotech, Santa Cruz, Calif.). The chemiluminescence was detected using an ECL kit according to the instructions of the manufacturer (Amersham Life Science, Arlington Heights, Ill.). […]
TNF dissociates wild type Trx but not Trx-C32S or Trx-C35Sfroin ASK1 in vivo. […] TNF-induced ASK1 activation was measured by an in vitro kinase assay using GST-MKK4 (JNKK1) fusion protein as a substrate. […] Association of ASK1 with Trx was easily detected in untreated EC cells (FIG. 5B, Ctrl). […]

[3] = system: neonatal rat cardiomyocytes; conditions: 100 μM H2O2, 15 min post-treatment
Protocol: Primary cultures of neonatal rat cardiac ventricular myocytes were prepared by the method of Simpson and Savion (Simpson P et al. Differentiation of rat myocytes in single cell cultures with and without proliferating nonmyocardial cells. Cross-striations, ultrastructure, and chronotropic response to isoproterenol. Circ Res. 50:101-16 (1982)) with minor modifications. Briefly, the ventricles were excised from 1-2 day old Wistar rats under ethyl ether anesthesia and minced with scissors in Ca^2+ free Krebs-Henseleit buffer (KHB) solution. The cells were dispersed by adding KHB containing 0.05% trypsin and 0.05% collagenase type II. They were stirred with the use of a small magnetic stirrer bar at 37° C. for 10 min, and the supernatants were saved in cold DMEM containing 10% fetal calf serum (complete DMEM), and digestion was repeated four times. The resultant cell suspension was centrifuged, and the pellet was resuspended in the medium. The cells were plated onto culture flasks for 1.5 hours to remove non-cardiac myocytes. The unattached cells were removed and seeded at 4×10^5 per well in 2.2 cm multi-well gelatin-coated culture plates in DMEM containing 10% fetal calf serum, 100 U/ml penicillin and 100 μg/ml streptomycin. […]
Cardiomyocyte contraction was determined by microscopy. […]

[4] = system: adult rat cardiomyocytes; experiment: Twitch amplitude of field-stimulated adult rat cardiac myocytes; conditions: 100 μM H2O2, field stimulated at 1 Hz, n=15
Text: Phosphorylation of endogenous cTnT in cardiomyocytes was examined by in vivo labeling with ^32P-orthophosphate and cell lysates were immunoprecipitated with anti-cTnT followed by SDS-PAGE/autoradiography.

[5] = system: caspase 3; experiment: ASK1-induced caspase 3 activity assay in BAEC (Ac-DEVD-AMC substrate); type: cell-based, Bovine; conditions: 100 μM inhibitor in lysate assay
Protocol: Caspase 3 activity assay: Caspase 3 activity was measured with a Caspase 3 fluorescence kit (Sigma) according to the Manufacturer's protocol. Briefly, BAEC were harvested in Caspase 3 lysis buffer (25 mM Hepes, pH 7.4, 5 mM CHAPS, 5 mM DTT) and incubated on ice for 15-20 min followed by a centrifugation at 14,000× g for 10-15 min at 4° C. For each reaction, 5 μl (200 μg) of cell lysate was incubated with 200 μl of 16 μM Caspase 3 peptide substrate acetyl-ASP-Glu-Val-Asp-7 amido-4-methylcoumarin (Ac-DEVD-AMC) in the assay buffer (25 mM Hepes, pH 7.4, 5 mM EDTA, 0.1% CHAPS, 5 mM DTT) in the presence or absence of 100 μM Caspase 3 inhibitor (Ac-DEVD-CHO). The reaction was incubated in the dark for 1-1.5 h and fluorescence was measured in a fluorescence plate reader. The measured fluorescence was used as an arbitrary unit.
Then the effects. of Trx on ASK1-induced caspase 3 activation, a hallmark of the execution of apoptotic cell death (Green D R. Apoptotic pathways: paper wraps stone blunts scissors. Cell. 102:1-4 (2000); Hengartner MO. The biochemistry of apoptosis. Nature. 407:770-6 2000)) was examined. Caspase 3 activity was determined by an in vitro assay using peptide substrate acetyl-ASP-Glu-Val-Asp-7 amido-4-methylcounarin (Ac-DEVD-AMC). Overexpression of ASK1 in BAEC increased caspase 3 activity compared to the control cells (FIG. 6B).

`CC(=O)N[C@@H](CS)C(=O)O` [Nac, N-acetyl-cysteine, reference compound] was tested. Which “inhibition of TNF-stimulated ASK1 activity” value [1] did it give?
The value was 70%.

And the “TNF-induced dissociation of ASK1 from Trx” value [2]?
The value was “prevented”.

Which “spontaneous beating of neonatal cardiomyocytes” value [3] does the source give for `OO` [Trx H2O2, Hydrogen peroxide] here?
Its value is “completely inhibited”.

What about the “time to complete inhibition of twitch” value [4] of the same molecule?
The value was 2.38 ± 018 min.

Ac-DEVD-CHO [reference compound] was tested. Which “caspase 3 activity in presence of caspase 3 inhibitor” value [5] did it give?
The value was “specifically inhibited”.
